Activity calls are given as the source filed them. The calls are words filed in the database; no cut-off is given here.
Tests used:
[1] = tested on: BEAS-2B; assay: Cytotoxicity against human BEAS2B cells assessed as reduction in cell viability after 72 hrs by MTT assay; format: cell-based
[2] = tested on: A549; assay: Cytotoxicity against human A549 cells assessed as reduction in cell viability after 72 hrs by MTT assay; format: functional, cell-based; conditions: A549, 72 h
[3] = Selectivity index, ratio of IC50 for human BEAS2B cells to IC50 for human A549 cells; format: toxicity
[4] = tested on: A549; assay: Induction of apoptosis in human A549 cells assessed as live cells at 20 uM after 72 hrs by Annexin V-FITC/propidium iodide staining based flow cytometry (reference value: 98.5%); format: functional
[5] = tested on: HT-29; assay: Cytotoxicity against human HT-29 cells assessed as reduction in cell viability after 72 hrs by MTT assay; format: functional, cell-based; conditions: HT-29, 72 h
[6] = tested on: A549; assay: Cell cycle arrest in human A549 cells assessed as accumulation at S-phase at 20 uM after 72 hrs by propidium iodide staining based flow cytometry (reference value: 31.9%); format: functional
[7] = tested on: A549; assay: Induction of apoptosis in human A549 cells assessed as late apoptotic cells at 20 uM after 72 hrs by Annexin V-FITC/propidium iodide staining based flow cytometry (reference value: 0.5%); format: functional
[8] = tested on: HepG2; assay: Cytotoxicity against human HepG2 cells assessed as reduction in cell viability after 72 hrs by MTT assay; format: functional, cell-based; conditions: HepG2, 72 h
[9] = tested on: SJSA-1; assay: Cytotoxicity against human SJSA1 cells assessed as reduction in cell viability after 72 hrs by MTT assay; format: functional, cell-based; conditions: SJSA-1, 72 h
[10] = tested on: A549; assay: Effect on Bax protein expression in human A549 cells at 20 uM after 72 hrs by densitometric analysis; format: functional, cell-based
[11] = tested on: A549; assay: Cell cycle arrest in human A549 cells assessed as accumulation at G2/M-phase at 10 uM after 72 hrs by propidium iodide staining based flow cytometry (reference value: 6.3 to 7.2%); format: functional
[12] = tested on: A549; assay: Cell cycle arrest in human A549 cells assessed as accumulation at G1-phase at 20 uM after 72 hrs by propidium iodide staining based flow cytometry (reference value: 61.5%); format: functional
[13] = tested on: Hep 3B2; assay: Cytotoxicity against human Hep3B cells assessed as reduction in cell viability after 72 hrs by MTT assay; format: functional, cell-based
[14] = tested on: A549; assay: Effect on Bcl2 protein expression in human A549 cells at 20 uM after 72 hrs by densitometric analysis; format: functional, cell-based
[15] = tested on: A549; assay: Induction of apoptosis in human A549 cells assessed as necrotic cells at 20 uM after 72 hrs by Annexin V-FITC/propidium iodide staining based flow cytometry (reference value: 0.6%); format: functional
[16] = tested on: A549; assay: Effect on cleaved caspase-3 protein expression in human A549 cells at 20 uM after 72 hrs by densitometric analysis; format: functional, cell-based
[17] = tested on: MCF7; assay: Cytotoxicity against human MCF7 cells assessed as reduction in cell viability after 72 hrs by MTT assay; format: functional, cell-based; conditions: MCF7, 72 h
[18] = tested on: A549; assay: Effect on Bcl-x protein expression in human A549 cells at 20 uM after 72 hrs by densitometric analysis; format: functional, cell-based
[19] = tested on: A549; assay: Cell cycle arrest in human A549 cells assessed as accumulation at G1-phase at 10 uM after 72 hrs by propidium iodide staining based flow cytometry (reference value: 75.2 to 76%); format: functional
[20] = tested on: A549; assay: Effect on Bad protein expression in human A549 cells at 20 uM after 72 hrs by densitometric analysis; format: functional, cell-based
[21] = tested on: U2OS; assay: Cytotoxicity against human U2OS cells assessed as reduction in cell viability after 72 hrs by MTT assay; format: functional, cell-based
[22] = tested on: A549; assay: Effect on Pro-caspase-3 protein expression in human A549 cells at 20 uM after 72 hrs by densitometric analysis; format: functional, cell-based
[23] = tested on: A549; assay: Upregulation of Cyclin-B1 protein expression in human A549 cells at 10 uM after 72 hrs by Western blot analysis; format: functional, cell-based
[24] = tested on: DU-145; assay: Cytotoxicity against human DU145 cells assessed as reduction in cell viability after 72 hrs by MTT assay; format: functional, cell-based; conditions: DU-145, 72 h
[25] = tested on: A549; assay: Anticlonogenic activity against human A549 cells at 10 uM after 24 to 72 hrs by crystal violet staining based microscopic method; format: functional, cell-based
[26] = tested on: HCT-116; assay: Cytotoxicity against human HCT116 cells assessed as reduction in cell viability after 72 hrs by MTT assay; format: functional, cell-based; conditions: HCT-116, 72 h
[27] = tested on: LoVo; assay: Cytotoxicity against human LoVo cells assessed as reduction in cell viability after 72 hrs by MTT assay; format: functional, cell-based
[28] = tested on: A549; assay: Cell cycle arrest in human A549 cells assessed as accumulation at S-phase at 10 uM after 72 hrs by propidium iodide staining based flow cytometry (reference value: 16.8 to 18.5%); format: functional
[29] = tested on: PC-3; assay: Cytotoxicity against human PC3 cells assessed as reduction in cell viability after 72 hrs by MTT assay; format: functional, cell-based; conditions: PC-3, 72 h
[30] = tested on: A549; assay: Induction of apoptosis in human A549 cells assessed as early apoptotic cells at 20 uM after 72 hrs by Annexin V-FITC/propidium iodide staining based flow cytometry (reference value: 0.4%); format: functional
[31] = tested on: HCT-116; assay: Cytotoxicity against p53-/- human HCT116 cells assessed as reduction in cell viability after 72 hrs by MTT assay; format: functional, cell-based; conditions: HCT-116, 72 h
[32] = tested on: A549; assay: Cell cycle arrest in human A549 cells assessed as accumulation at G2/M-phase at 20 uM after 72 hrs by propidium iodide staining based flow cytometry (reference value: 6.7%); format: functional
[33] = tested on: A549; assay: Induction of apoptosis in human A549 cells assessed as caspase-3 cleavage at 20 uM after 72 hrs by Western blot analysis; format: functional, cell-based
[34] = tested on: A549; assay: Cell cycle arrest in human A549 cells assessed as accumulation at G2/M-phase at 10 uM after 24 hrs by propidium iodide staining based flow cytometry (reference value: 6.5%); format: functional
[35] = tested on: A549; assay: Cell cycle arrest in human A549 cells assessed as accumulation at S-phase at 10 uM after 24 hrs by propidium iodide staining based flow cytometry (reference value: 34.1%); format: functional
[36] = tested on: A549; assay: Cell cycle arrest in human A549 cells assessed as accumulation at G1-phase at 10 uM after 24 hrs by propidium iodide staining based flow cytometry (reference value: 59.4%); format: functional
[37] = tested on: A549; assay: Anticlonogenic activity against human A549 cells at 10 uM after 72 hrs by crystal violet staining based microscopic method relative to control; format: functional

SMILES: CCCCOC1OC(=O)C(Cl)=C1Nc1ccc(F)cc1 (configuration not stated)
- IC50 [1]: 122 µM
- IC50 [2]: 78.5 µM
- log(RatioIC50) [3]: 0.19

SMILES: COC1OC(=O)C(Cl)=C1Cl (configuration not stated)
- IC50 [1]: 4.6 µM
- IC50 [2]: 5.1 µM
- log(RatioIC50) [3]: 0.05

SMILES: CC(C)OC1OC(=O)C(Cl)=C1Nc1ccc(Cl)cc1 (configuration not stated)
- IC50 [1]: 77 µM
- IC50 [2]: 39.6 µM
- log(RatioIC50) [3]: 0.29

SMILES: CCCCOC1OC(=O)C(Cl)=C1Nc1ccc(Br)cc1 (configuration not stated)
- IC50 [1]: 42.7 µM
- IC50 [2]: 46.5 µM
- log(RatioIC50) [3]: -0.04

SMILES: CCCCOC1OC(=O)C(Cl)=C1Nc1ccccc1 (configuration not stated)
- IC50 [1]: 206 µM
- IC50 [2]: 175 µM
- log(RatioIC50) [3]: 0.07

SMILES: CC(C)OC1OC(=O)C(Cl)=C1Nc1ccc(Br)cc1 (configuration not stated)
- IC50 [1]: 202 µM
- IC50 [2]: 95.9 µM
- log(RatioIC50) [3]: 0.32

SMILES: CC(C)OC1OC(=O)C(Cl)=C1Nc1ccccc1 (configuration not stated)
- IC50 [1]: > 400 µM
- IC50 [2]: > 400 µM

SMILES: CCOC1OC(=O)C(Cl)=C1Cl (configuration not stated)
- IC50 [1]: 3.8 µM
- IC50 [2]: 6.3 µM
- log(RatioIC50) [3]: 0.22

SMILES: CCCCOC1OC(=O)C(Cl)=C1Cl (configuration not stated)
- IC50 [1]: 22.3 µM
- IC50 [2]: 22.5 µM
- log(RatioIC50) [3]: 0

SMILES: CC(C)OC1OC(=O)C(Cl)=C1N1CCCCC1 (configuration not stated)
- IC50 [1]: > 400 µM
- IC50 [2]: > 400 µM

SMILES: CCCCOC1OC(=O)C(Cl)=C1Nc1ccc(Cl)cc1 (configuration not stated)
- IC50 [1]: 60.8 µM
- IC50 [2]: 58.1 µM
- log(RatioIC50) [3]: 0.02

SMILES: CCCCOC1OC(=O)C(Cl)=C1N1CCCCC1 (configuration not stated)
- IC50 [1]: 172 µM
- IC50 [2]: 93.3 µM
- log(RatioIC50) [3]: 0.27

SMILES: O=C1OC(O)C(Cl)=C1Cl (configuration not stated) [MUCOCHLORIC ACID]
- Activity [4]: 98.6%
- IC50 [5]: 21.8 µM
- Activity [6]: 29%
- Activity [7]: 0.3%
- IC50 [8]: 111 µM
- IC50 [9]: 39.4 µM
- Activity [10]: inactive
- Activity [11]: 7.2%
- Activity [12]: 64.2%
- IC50 [13]: 85.1 µM
- Activity [14]: inactive
- Activity [15]: 0.8%
- Activity [16]: inactive
- IC50 [17]: 32.3 µM
- IC50 [1]: 45 µM
- Activity [18]: inactive
- Activity [19]: 74%
- Activity [20]: inactive
- IC50 [21]: 58.5 µM
- Activity [22]: inactive
- IC50 [2]: 123 µM
- Activity [23]: inactive
- log(RatioIC50) [3]: -0.44
- IC50 [24]: 130 µM
- Activity [25]: inactive
- IC50 [26]: 8.3 µM
- IC50 [27]: 17.2 µM
- Activity [28]: 18.8%
- IC50 [29]: 24.7 µM
- Activity [30]: 0.3%
- IC50 [31]: 10.8 µM
- Activity [32]: 6.9%
- Activity [33]: inactive
- Activity [34]: 8%
- Activity [35]: 33.3%
- Activity [36]: 58.7%

SMILES: CC(C)(C)OC1OC(=O)C(Cl)=C1Cl (configuration not stated)
- IC50 [1]: 23.1 µM
- IC50 [2]: 14 µM
- log(RatioIC50) [3]: 0.22

SMILES: CC(C)(C)COC1OC(=O)C(Cl)=C1Nc1ccc(Cl)cc1 (configuration not stated)
- IC50 [1]: 30.3 µM
- IC50 [2]: 13.3 µM
- log(RatioIC50) [3]: 0.36

SMILES: CC(C)(C)COC1OC(=O)C(Cl)=C1N1CCCCC1 (configuration not stated)
- IC50 [1]: > 400 µM
- IC50 [2]: > 400 µM

SMILES: CC(C)(C)COC1OC(=O)C(Cl)=C1Cl (configuration not stated)
- Activity [4]: 77.7%
- IC50 [5]: 7.2 µM
- Activity [6]: 40.8%
- Activity [7]: 16.1%
- IC50 [8]: 17.6 µM
- IC50 [9]: 11.1 µM
- Activity [10]: inactive
- Activity [11]: 8.4%
- Activity [12]: 51.2%
- IC50 [13]: 27.8 µM
- Activity [14]: inactive
- Activity [15]: 2.3%
- Activity [16]: inactive
- IC50 [17]: 11.2 µM
- IC50 [1]: 59 µM
- Activity [18]: inactive
- Activity [19]: 74%
- Activity [20]: inactive
- IC50 [21]: 38.1 µM
- Activity [22]: inactive
- IC50 [2]: 7.7 µM
- Activity [23]: inactive
- log(RatioIC50) [3]: 0.88
- IC50 [24]: 26.8 µM
- Activity [25]: Active
- IC50 [26]: 7.2 µM
- IC50 [27]: 7.3 µM
- Activity [28]: 17.6%
- IC50 [29]: 6 µM
- Activity [30]: 4.2%
- IC50 [31]: 6.2 µM
- Activity [32]: 8%
- Activity [33]: inactive
- Activity [34]: 5.3%
- Activity [35]: 32.6%
- Activity [36]: 62.1%

SMILES: CC(C)(C)COC1OC(=O)C(Cl)=C1Nc1ccc(F)cc1 (configuration not stated)
- IC50 [1]: 47.6 µM
- IC50 [2]: 26.7 µM
- log(RatioIC50) [3]: 0.25

SMILES: CCCOC1OC(=O)C(Cl)=C1Cl (configuration not stated)
- IC50 [1]: 3.5 µM
- IC50 [2]: 3.6 µM
- log(RatioIC50) [3]: -0.02

SMILES: C#Cc1cccc(Nc2ncnc3cc(OCCOC)c(OCCOC)cc23)c1 [ERLOTINIB]
- Activity [11]: 6%
- Activity [19]: 74.5%
- Activity [28]: 18.5%
- Activity [37]: 75%

SMILES: CC(C)OC1OC(=O)C(Cl)=C1Nc1ccc(F)cc1 (configuration not stated)
- IC50 [1]: > 400 µM
- IC50 [2]: 186 µM

SMILES: CC(C)(C)COC1OC(=O)C(Cl)=C1Nc1ccc(Br)cc1 (configuration not stated)
- IC50 [1]: 30.9 µM
- IC50 [2]: 28 µM
- log(RatioIC50) [3]: 0.23

SMILES: CC(C)(C)COC1OC(=O)C(Cl)=C1Nc1ccccc1 (configuration not stated)
- IC50 [1]: 76.2 µM
- IC50 [2]: 76.2 µM
- log(RatioIC50) [3]: 0

Source: ChEMBL document CHEMBL4229359, “Simple 2(5H)-furanone derivatives with selective cytotoxicity towards non-small cell lung cancer cell line A549 - Synthesis, structure-activity relationship and biological evaluation” (Eur J Med Chem, 2018)
